Test results: ChEMBL document CHEMBL1201862, “PubChem BioAssay data set” (2004)
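A five-concentration, 48-hour dose response in 96-well plates underlies each endpoint, interpolated linearly between surrounding concentrations. Here, GI50 denotes the concentration required for 50% inhibition of growth.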 Calls of active or inactive are those of the source. No stated cut-off is given here; in the data, active = GI50 up to about 1.1 µM and inactive = higher.

What was measured:
Assay in all cases: DTP human tumour cell line panel, 48 h
[1] = system: SNB-78
[2] = system: HT-29
[3] = system: 786-0
[4] = system: Malme-3M
[5] = system: DLD-1
[6] = system: SF-539
[7] = system: MDA-MB-231
[8] = system: SNB-75
[9] = system: PC-3
[10] = system: SNB-19
[11] = system: KM12
[12] = system: SK-MEL-5
[13] = system: HCC 2998
[14] = system: EKVX
[15] = system: MDA-MB-435
[16] = system: HL-60
[17] = system: LOX IMVI
[18] = system: ACHN
[19] = system: RXF 393
[20] = system: DMS-273

| SMILES | GI50 [1] | GI50 [2] | GI50 [3] | GI50 [4] | GI50 [5] | GI50 [6] | GI50 [7] | GI50 [8] | GI50 [9] | GI50 [10] | GI50 [11] | GI50 [12] | GI50 [13] | GI50 [14] | GI50 [15] | GI50 [16] | GI50 [17] | GI50 [18] | GI50 [19] | GI50 [20] |
| --- | --- | --- | --- | --- | --- | --- | --- | --- | --- | --- | --- | --- | --- | --- | --- | --- | --- | --- | --- | --- |
| Cc1nc2ccc(NCCN(C)C)c3c(=O)c4ccccc4n1c23 | 6.79 µM (inactive) | 1.02 µM (active) | 1.68 µM (inactive) | 4.14 µM (inactive) | 2.74 µM (inactive) | 2.74 µM (inactive) | 1.05 µM (active) | 3.5 µM (inactive) | 1.1 µM (active) | 4.19 µM (inactive) | 2.21 µM (inactive) | 2.21 µM (inactive) | 2.96 µM (inactive) | 3.05 µM (inactive) | 2.09 µM (inactive) | 3.37 µM (inactive) | 0.9 µM (active) | 1.52 µM (inactive) | 10.5 µM (inactive) | – |
| CC1(n2nc(-c3ccccc3)n(-c3ccccc3)c2=O)CSC1 | > 100 µM (inactive) | > 100 µM (inactive) | > 100 µM (inactive) | – | > 100 µM (inactive) | > 100 µM (inactive) | – | > 100 µM (inactive) | – | > 100 µM (inactive) | > 100 µM (inactive) | > 100 µM (inactive) | > 100 µM (inactive) | > 100 µM (inactive) | – | > 100 µM (inactive) | > 100 µM (inactive) | > 100 µM (inactive) | > 100 µM (inactive) | 82.4 µM (inactive) |
| Clc1ccc2c(Cl)nc(-c3ccccc3)nc2c1 | 11.4 µM (inactive) | 26.4 µM (inactive) | – | 24.3 µM (inactive) | 27.6 µM (inactive) | – | – | 17.7 µM (inactive) | – | 35.6 µM (inactive) | 36.8 µM (inactive) | 16.5 µM (inactive) | 34.8 µM (inactive) | 11.4 µM (inactive) | – | 20.2 µM (inactive) | – | 20.9 µM (inactive) | 23.4 µM (inactive) | 36.7 µM (inactive) |
| CS/C(=N\c1ccccc1)N(c1ccccc1)c1nc(=[N+](C)C)ss1.[O-][Cl+3]([O-])([O-])[O-] | 5.06 µM (inactive) | 0.034 µM (active) | 5.66 µM (inactive) | 2.79 µM (inactive) | – | 4.15 µM (inactive) | – | 4.71 µM (inactive) | – | 2.22 µM (inactive) | 2.65 µM (inactive) | 1.41 µM (inactive) | 5.35 µM (inactive) | 15.3 µM (inactive) | – | 0.927 µM (active) | 3.15 µM (inactive) | 5.42 µM (inactive) | 4.13 µM (inactive) | 0.166 µM (active) |
| O=Cc1cn(C(=O)c2ccccc2)c2ccccc12 | 36.9 µM (inactive) | 71.3 µM (inactive) | > 100 µM (inactive) | > 100 µM (inactive) | > 100 µM (inactive) | 80 µM (inactive) | – | 43.6 µM (inactive) | – | – | 64 µM (inactive) | 45 µM (inactive) | > 100 µM (inactive) | > 100 µM (inactive) | – | 28.7 µM (inactive) | – | > 100 µM (inactive) | 53.5 µM (inactive) | > 100 µM (inactive) |
| O=CC1CCCc2ccccc21 (stereo not drawn) | > 100 µM (inactive) | > 100 µM (inactive) | > 100 µM (inactive) | > 100 µM (inactive) | > 43.1 µM (inactive) | – | – | > 100 µM (inactive) | – | > 100 µM (inactive) | > 100 µM (inactive) | > 100 µM (inactive) | > 100 µM (inactive) | > 100 µM (inactive) | – | > 63 µM (inactive) | > 44.1 µM (inactive) | > 100 µM (inactive) | > 100 µM (inactive) | > 100 µM (inactive) |
| CN(C)CCC(/C=C/c1ccccc1)=N\Nc1c(F)c(F)c(F)c(F)c1F | 50.9 µM (inactive) | 27 µM (inactive) | > 100 µM (inactive) | 38 µM (inactive) | > 100 µM (inactive) | > 100 µM (inactive) | – | 9.82 µM (inactive) | – | > 100 µM (inactive) | > 100 µM (inactive) | 15.5 µM (inactive) | – | > 100 µM (inactive) | – | 16 µM (inactive) | > 100 µM (inactive) | 49.1 µM (inactive) | 11.3 µM (inactive) | 36.8 µM (inactive) |
| COc1ccc(S(=O)(=O)N/N=C(\C)CN2C(=O)c3ccccc3C2=O)cc1 | > 100 µM (inactive) | > 100 µM (inactive) | > 100 µM (inactive) | > 100 µM (inactive) | > 100 µM (inactive) | > 100 µM (inactive) | – | > 100 µM (inactive) | – | > 100 µM (inactive) | > 100 µM (inactive) | > 100 µM (inactive) | > 100 µM (inactive) | > 100 µM (inactive) | – | > 100 µM (inactive) | > 100 µM (inactive) | > 100 µM (inactive) | – | > 100 µM (inactive) |
| O=P(Nc1cccc(Cl)c1)(Oc1ccccc1)N(CCCl)CCCl (stereo not drawn) | 18.3 µM (inactive) | 14.8 µM (inactive) | – | 14.9 µM (inactive) | 14.4 µM (inactive) | 16.7 µM (inactive) | – | 15.6 µM (inactive) | – | – | 14.8 µM (inactive) | 12.4 µM (inactive) | 14.8 µM (inactive) | 17.7 µM (inactive) | – | 70.6 µM (inactive) | – | 16.7 µM (inactive) | – | 13.6 µM (inactive) |
| COc1ccc(C2C(Cl)C(=O)N2NC(=O)c2ccc(N)cc2)cc1 (stereo not drawn) | > 100 µM (inactive) | > 100 µM (inactive) | > 100 µM (inactive) | > 100 µM (inactive) | > 100 µM (inactive) | > 100 µM (inactive) | – | > 100 µM (inactive) | – | > 100 µM (inactive) | > 100 µM (inactive) | > 100 µM (inactive) | > 100 µM (inactive) | > 100 µM (inactive) | – | > 100 µM (inactive) | > 100 µM (inactive) | > 100 µM (inactive) | – | > 100 µM (inactive) |
| Cc1ccc2c(c1CCCC(C)(C)O)C(=O)C(O)=C(C(C)C)C2=O | – | > 100 µM (inactive) | > 100 µM (inactive) | > 100 µM (inactive) | > 100 µM (inactive) | > 100 µM (inactive) | – | > 100 µM (inactive) | – | > 100 µM (inactive) | > 100 µM (inactive) | > 100 µM (inactive) | > 100 µM (inactive) | 47.2 µM (inactive) | – | 46.6 µM (inactive) | – | 63 µM (inactive) | 53.5 µM (inactive) | 95.5 µM (inactive) |
| COC(=O)C(Cc1nc2ccccc2nc1O)C(=O)C(=O)Nc1ccc(F)cc1 (stereo not drawn) | – | 42.6 µM (inactive) | 25.4 µM (inactive) | 28.8 µM (inactive) | 32.9 µM (inactive) | 37 µM (inactive) | – | 28.8 µM (inactive) | – | > 100 µM (inactive) | 41 µM (inactive) | > 100 µM (inactive) | > 100 µM (inactive) | > 100 µM (inactive) | – | 45.5 µM (inactive) | 41.3 µM (inactive) | > 100 µM (inactive) | 23.4 µM (inactive) | 48.1 µM (inactive) |
| COc1ccc(/C=C/C(=N\NC(=O)c2ccccc2)c2sc(Nc3ccc([N+](=O)[O-])cc3)nc2C)cc1OC | 8.55 µM (inactive) | 17 µM (inactive) | 10.5 µM (inactive) | 19.2 µM (inactive) | 6.27 µM (inactive) | 21.1 µM (inactive) | – | 5.57 µM (inactive) | – | 12.4 µM (inactive) | 7.73 µM (inactive) | – | 29.6 µM (inactive) | 18.6 µM (inactive) | – | 2.62 µM (inactive) | 3.75 µM (inactive) | 14.7 µM (inactive) | 12.9 µM (inactive) | 12.5 µM (inactive) |
| O=C(Nc1ccccc1)C(=O)C(C(=O)c1ccccc1F)C1OC(=O)c2ccccc21 (stereo not drawn) | > 100 µM (inactive) | 37.9 µM (inactive) | – | – | 41.9 µM (inactive) | 19.3 µM (inactive) | – | 21.1 µM (inactive) | – | 27.5 µM (inactive) | 26.9 µM (inactive) | 71.8 µM (inactive) | 30.3 µM (inactive) | 35 µM (inactive) | – | 24.4 µM (inactive) | 27.2 µM (inactive) | 49.9 µM (inactive) | 35.8 µM (inactive) | 31.3 µM (inactive) |
| CCOC(=O)CC(=O)ON(C)C(=O)Cc1ccccc1 | > 100 µM (inactive) | > 100 µM (inactive) | > 100 µM (inactive) | > 100 µM (inactive) | > 100 µM (inactive) | > 100 µM (inactive) | – | – | – | > 100 µM (inactive) | > 100 µM (inactive) | > 100 µM (inactive) | – | > 100 µM (inactive) | – | > 100 µM (inactive) | > 100 µM (inactive) | > 100 µM (inactive) | – | – |
| C[P+](C)(C)c1ccccc1 | – | > 100 µM (inactive) | > 100 µM (inactive) | > 100 µM (inactive) | > 100 µM (inactive) | > 100 µM (inactive) | – | > 100 µM (inactive) | – | > 100 µM (inactive) | > 100 µM (inactive) | > 100 µM (inactive) | > 100 µM (inactive) | > 100 µM (inactive) | – | > 100 µM (inactive) | > 100 µM (inactive) | > 100 µM (inactive) | > 100 µM (inactive) | > 100 µM (inactive) |
| COc1ccc(/C(Cl)=C(\CN(C)C)c2ccc(OC)c(OC)c2)cc1OC.[B] | 10.1 µM (inactive) | > 100 µM (inactive) | 15.9 µM (inactive) | – | > 100 µM (inactive) | 4.72 µM (inactive) | – | 2.5 µM (inactive) | – | 17 µM (inactive) | > 100 µM (inactive) | > 100 µM (inactive) | > 100 µM (inactive) | > 100 µM (inactive) | – | > 100 µM (inactive) | > 100 µM (inactive) | > 100 µM (inactive) | 15.7 µM (inactive) | 2.34 µM (inactive) |
| Cc1cc(O)nc(NNC(C#N)c2cccc(O)c2)n1 (stereo not drawn) | > 100 µM (inactive) | > 100 µM (inactive) | > 100 µM (inactive) | 79.1 µM (inactive) | > 100 µM (inactive) | > 100 µM (inactive) | – | > 100 µM (inactive) | – | – | > 100 µM (inactive) | > 100 µM (inactive) | – | – | – | > 100 µM (inactive) | > 100 µM (inactive) | > 100 µM (inactive) | > 100 µM (inactive) | > 100 µM (inactive) |
